From ChEMBL document CHEMBL2034840, “Automated generation of turn mimetics: proof of concept study for the MC4 receptor” (Bioorg Med Chem, 2012)

Biological target: Melanocortin receptor 4 (Homo sapiens, UniProt P32245)
Experiment: Displacement of [125I]NDPMSH from human MC4 receptor expressed in HEK293 cells after 2 hrs by liquid scintillation counting
Assay type: cell-based
Conditions: not given

Chain of Melanocortin receptor 4 (P32245 whole entry): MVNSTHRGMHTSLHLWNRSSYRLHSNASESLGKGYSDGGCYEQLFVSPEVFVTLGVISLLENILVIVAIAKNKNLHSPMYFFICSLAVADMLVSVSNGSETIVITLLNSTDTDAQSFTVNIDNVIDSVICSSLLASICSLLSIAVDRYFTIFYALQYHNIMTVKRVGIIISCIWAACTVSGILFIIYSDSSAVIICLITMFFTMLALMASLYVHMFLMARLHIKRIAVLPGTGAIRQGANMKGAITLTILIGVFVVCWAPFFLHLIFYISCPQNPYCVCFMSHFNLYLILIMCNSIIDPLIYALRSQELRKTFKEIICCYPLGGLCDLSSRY

SMILES	Ki
O=C(NCCc1ccccc1)[C@@H]1CNC[C@H]1C(=O)NCc1ccccc1	1 µM
O=C(NCCc1ccccc1)[C@H]1CN(CCOc2ccccc2)C[C@H]1C(=O)NC1CCN(Cc2ccccc2)C1 (mixture of isomers)	1 µM
O=C(CNC(=O)[C@H]1CNC[C@H]1C(=O)NCCc1c[nH]c2ccccc12)c1ccccc1	5.5 µM
O=C(NCCCc1ccccc1)[C@H]1CNC[C@H]1C(=O)NCc1ccc(C(F)(F)F)cc1	5.8 µM
NCCNC(=O)[C@@H]1CNC[C@H]1C(=O)NC(=O)c1ccccc1	5.3 µM
O=C(NCc1ccccc1)[C@@H]1CNC[C@H]1C(=O)NCc1ccccc1	0.9 µM
O=C(NCc1ccccc1)[C@@H]1CNC[C@H]1C(=O)Nc1cccc(-c2ccccc2)c1	6.6 µM
O=C(NCCc1ccccc1)[C@H]1CNC[C@H]1C(=O)NC1CCN(Cc2ccccc2)C1 (stereo in doubt; 3a)	5 µM
O=C(NCc1ccccc1)[C@H]1CNC[C@H]1C(=O)NCCc1c[nH]c2ccccc12	5.5 µM

Second part, the compound after the results:

Ki	SMILES
6.2 µM	O=C(NCCc1ccccc1)[C@H]1CN(CCO)C[C@H]1C(=O)NC1CCN(Cc2ccccc2)C1 (mixture of isomers)
2.6 µM	O=C(NCCc1ccccc1)[C@H]1CN(CC2CC2)C[C@H]1C(=O)NC1CCN(Cc2ccccc2)C1 (mixture of isomers)
0.4 µM	O=C(NCc1cccc(Cl)c1)[C@H]1CN(CC2CC2)C[C@H]1C(=O)NC1CCN(Cc2ccccc2)C1 (mixture of isomers)
0.16 µM	O=C(NCCc1ccc(Cl)cc1Cl)[C@H]1CN(CC2CC2)C[C@H]1C(=O)NC1CCN(Cc2ccccc2)C1 (mixture of isomers)
0.67 µM	O=C(NCCc1cccc(Cl)c1)[C@H]1CN(CC2CC2)C[C@H]1C(=O)NC1CCN(Cc2ccccc2)C1 (mixture of isomers)
1.8 µM	O=C(NCCc1cccc(F)c1)[C@H]1CN(CC2CC2)C[C@H]1C(=O)NC1CCN(Cc2ccccc2)C1 (mixture of isomers)
0.07 µM	O=C(NCc1ccc(Cl)cc1Cl)[C@H]1CN(CC2CC2)C[C@H]1C(=O)NC1CCN(Cc2ccccc2)C1 (mixture of isomers)
0.38 µM	O=C(NCCc1ccc(Cl)cc1)[C@H]1CN(CC2CC2)C[C@H]1C(=O)NC1CCN(Cc2ccccc2)C1 (mixture of isomers)

Same assay, conditions: hek293

SMILES	Ki
O=C(NCCc1ccccc1)[C@H]1CNC[C@H]1C(=O)NC1CCN(Cc2ccccc2)C1 (mixture of isomers)	5 µM
